In patent publication US11400106B2, “Methods for inhibiting microbe growth” (priority 2018, dated 2022):
Where two headings read alike, the source gives them in different places. Where a SMILES comes first, the peptide text is derived from it.

How the values were obtained:
[1] = system: S. aureus; experiment: FIC index of pentamidine combined with various salts (checkerboard); type: cell-based, Staphylococcus aureus; details: combination of pentamidine isethionate with each salt; FICI≤0.5 synergy, 1-2 additivity, >4 antagonism
Procedure: (§1) In the following experiments, bacterial cells were cultured in 96-well microtiter plates in cation-adjusted Mueller-Hinton Broth (MHB) for 18 h at 37° C. The main strains used were E. coli (K-12 BW25113) (placed in stationary incubator) and S. aureus (Newman Strain) (incubated at 250 r.p.m). Knockout strains (ΔtolcC and ΔychM) were used from the Keio knockout collection (Baba et al., Construction of Escherichia coli K-12 in-frame, single-gene knockout mutants: the Keio collection. Mol Syst Biol 2, 2006 0008, doi:10.1038/msb4100050 (2006)). For MIC determination and checkerboard analyses, Clinical & Laboratory Standards Institute (CLSI) protocol was used. […] DiSC3 loading of S. aureus cells was performed as previously described (Farha et al., Collapsing the proton motive force to identify synergistic combinations against Staphylococcus aureus. Chemistry & biology 20, 1168-1178, doi:10.1016/j.chembiol.2013.07.006 (2013)). CCCP concentration of 20 μM was used. pH adjustments were made by addition of HCl or NaOH. INT assay and ATP bioluminescence assays were performed as previously described (Farha et al., Collapsing the proton motive force to identify synergistic combinations against Staphylococcus aureus. Chemistry & biology 20, 1168-1178, doi:10.1016/j.chembiol.2013.07.006 (2013)). For chemical-genomic studies, the Keio library was grown overnight in cation-adjusted MHB broth, in 384-well plates. From these, treatment plates (25 mM sodium bicarbonate, or a sterile water control) were inoculated and grown for 15 hours at 37° C., in a stationary incubator. Data was normalized according to Mangat et al (Mangat et al., Rank ordering plate data facilitates data visualization and normalization in high-throughput screening. J Biomol Screen 19, 1314-1320, doi:10.1177/1087057114534298 (2014)), with gene products and GO terms mined from EcoCyc. The GFP promoter library (Keseler et al., EcoCyc: fusing model organism databases with systems biology. Nucleic Acids Res 41, D605-612, doi:10.1093/nar/gks1027 (2013)) was grown for 18 hours at ambient temperature with the same inoculation strategy as with the Keio collection. The analysis pipeline of Zaslaver et al (Zaslaver et al., A comprehensive library of fluorescent transcriptional reporters for Escherichia coli. Nat Methods 3, 623-628, doi:10.1038/nmeth895 (2006)) was used to generate maps of promoter activity, from which lists of promoters with increased or decreased activity were compiled.

[2] = system: E. coli; experiment: microbe, parasite or virus in culture; type: cell-based, Escherichia coli; details: for MIC: Escherichia coli, 18 h, read-out: MIC, E. coli, MHB−
Procedure: as §1
(§2) Fold enhancement in MICs in the media supplemented with sodium bicarbonate is represented by a positive fold, whereas suppression of activity is represented by a negative fold.
(§3) The effect of sodium bicarbonate on the activity of additional antibacterial agents was investigated. Clinical isolates of various bacteria were obtained from the ATCC and the IHMA.
(§4) The effect of sodium bicarbonate on the activity of cationic antiseptic agents was investigated. Clinical isolates of various bacteria were obtained from the ATCC and the IHMA.

[3] = system: S. aureus; experiment: microbe, parasite or virus in culture; details: for MIC: Staphylococcus aureus, 18 h, read-out: MIC, S. aureus, MHB−; for effect of 25 mM sodium bicarbonate on antibacterial activity: result in words
Procedure: as §1, §2, §3, §4

[4] = antibiotic agents, MHB in the absence of sodium bicarbonate
[5] = antibiotic agents, fold shift in MIC, MHB− vs MHB+
[6] = antibiotic agents, MHB in the presence of 25 mM sodium bicarbonate
[7] = MHB in the absence of sodium bicarbonate
[8] = antiseptic agents, MHB in the absence of sodium bicarbonate
[9] = antiseptic agents, MHB in the presence of 25 mM sodium bicarbonate
[10] = antiseptic agents, fold shift in MIC

Compound: O=P(O)(O)O [Sodium phosphate]
- FIC Index (with pentamidine in S. aureus) [1]: >8
- MIC of dirithromycin in the presence of the salt [2]: >128 µg/mL

Compound: O=S(=O)([O-])[O-].[Na+].[Na+] [Sodium sulfate]
- FIC Index (with pentamidine in S. aureus) [1]: 2
- MIC of dirithromycin in the presence of the salt [2]: 128 µg/mL

Compound: Colistin
- MIC, E. coli, MHB+ [2]: 0.5 μg of antimicrobial agent/mL of buffer
- MIC, E. coli, MHB− [2, 4]: 0.5 μg of antimicrobial agent/mL of buffer
- Fold, E. coli [2, 5]: 1
- MIC, S. aureus, MHB− [3, 4]: >128 μg of antimicrobial agent/mL of buffer
- MIC, S. aureus, MHB+ [3, 6]: >128 μg of antimicrobial agent/mL of buffer
- Fold, S. aureus [3, 5]: 1

Compound: CC[C@H](C)[C@H](N)C1=N[C@H](C(=O)N[C@@H](CC(C)C)C(=O)N[C@H](CCC(=O)O)C(=O)N[C@H](C(=O)N[C@H]2CCCCNC(=O)[C@H](CC(N)=O)NC(=O)[C@@H](CC(=O)O)NC(=O)[C@H](Cc3cnc[nH]3)NC(=O)[C@@H](Cc3ccccc3)NC(=O)[C@H]([C@@H](C)CC)NC(=O)[C@@H](CCCN)NC2=O)[C@@H](C)CC)CS1 [Bacitracin] (HELM PEPTIDE1{[CC[C@H](C)[C@H](N)C1=N[C@H](C(=O)[*:2])CS1].L.[dE].I.K.[NCCC[C@@H](N[*:1])C(=O)[*:2]].I.[dF].H.[dD].N}$PEPTIDE1,PEPTIDE1,5:R3-11:R2$$$V2.0)
- MIC [2, 7]: > 256 µg/mL
- MIC, S. aureus, MHB+ [3]: 64
- MIC [3]: 32 µg/mL

Compound: Neomycin
- Fold, E. coli [2]: 4
- Fold, S. aureus [3]: 4
- MIC, S. aureus, MHB− [3, 7]: 2
- MIC, S. aureus, MHB+ ([3]; MHB in the presence of 25 mM sodium bicarbonate): 0.5

Compound: C=C[C@]1(C)C[C@@H](OC(=O)CO)[C@]2(C)[C@H](C)CC[C@]3(CCC(=O)[C@H]32)[C@@H](C)[C@@H]1O [Pleuromutilin]
- MIC, E. coli, MHB+ [2]: >128 μg of antimicrobial agent/mL of buffer
- MIC [2, 4]: > 128 µg/mL
- MIC, S. aureus, MHB+ [3]: 1 μg of antimicrobial agent/mL of buffer
- MIC [3]: 1 µg/mL

Compound: CC(C)C[C@H](NC(=O)[C@H](CCCNC(=N)N)NC(=O)CNC(=O)CNC(=O)[C@@H](N)CCCNC(=N)N)C(=O)N[C@H]1CSSC[C@@H](C(=O)N[C@H](C(=O)NCC(=O)N[C@@H](CCCNC(=N)N)C(N)=O)C(C)C)NC(=O)[C@H](C(C)C)NC(=O)[C@@H]2CSSC[C@H](NC(=O)[C@H](Cc3ccc(O)cc3)NC1=O)C(=O)N[C@@H](CCCNC(=N)N)C(=O)N[C@@H](CCCNC(=N)N)C(=O)N[C@@H](CCCNC(=N)N)C(=O)N[C@@H](Cc1ccccc1)C(=O)N2 [Protegrin]
- enhancement of antimicrobial activity in the presence of bicarbonate [2]: 8 fold
- enhancement of antimicrobial activity in the presence of bicarbonate ([3]; S. aureus, 25 mM sodium bicarbonate): 8 fold

Compound: Furadinozoline
- MIC, E. coli, MHB− [2, 4]: 4 μg of antimicrobial agent/mL of buffer
- MIC, E. coli, MHB+ [2, 6]: 4 μg of antimicrobial agent/mL of buffer
- Fold, E. coli [2, 5]: 1
- MIC, S. aureus, MHB− [3, 4]: 32 μg of antimicrobial agent/mL of buffer
- MIC, S. aureus, MHB+ [3, 6]: 16 μg of antimicrobial agent/mL of buffer
- Fold, S. aureus [3, 5]: 2

Compound: O=C(N[C@H](CO)[C@H](O)c1ccc([N+](=O)[O-])cc1)C(Cl)Cl [Chloramphenicol]
- effect of 25 mM sodium bicarbonate on antibacterial activity [2]: remained largely unchanged
- MIC [2, 7]: 8 µg/mL
- MIC, S. aureus, MHB+ [3]: 8
- effect of 25 mM sodium bicarbonate on antibacterial activity ([3]; S. aureus): remained largely unchanged
- MIC [3]: 8 µg/mL

Compound: CC[C@H]1OC(=O)[C@H](C)C(=O)[C@H](C)[C@@H](O[C@@H]2O[C@H](C)C[C@H](N(C)C)[C@H]2O)[C@](C)(OC)C[C@@H](C)C(=O)[C@H](C)[C@H]2N(CCCCn3cnc(-c4cccnc4)c3)C(=O)O[C@]12C [Telithromycin]
- MIC, E. coli, MHB+ [2]: 16 μg of antimicrobial agent/mL of buffer
- MIC [2, 4]: > 128 µg/mL
- MIC, S. aureus, MHB+ [3]: 0.5 μg of antimicrobial agent/mL of buffer
- MIC [3]: 4 µg/mL

Compound: C=C(NC(=O)C(=C)NC(=O)c1csc(C2=N[C@@H]3c4csc(n4)[C@H]4NC(=O)c5csc(n5)[C@H]([C@](C)(O)[C@@H](C)O)NC(=O)[C@H]5CSC(=N5)/C(=C/C)NC(=O)[C@H]([C@@H](C)O)NC(=O)c5csc(n5)[C@]3(CC2)NC(=O)[C@H](C)NC(=O)C(=C)NC(=O)[C@H](C)NC(=O)[C@H]([C@@H](C)CC)N[C@@H]2C=Cc3c([C@H](C)O)cc(nc3[C@H]2O)C(=O)O[C@@H]4C)n1)C(N)=O [Thiostrepton]
- MIC [2]: > 128 µg/mL
- MIC, E. coli, MHB+ [2, 6]: >128 μg of antimicrobial agent/mL of buffer
- MIC [3]: 0.5 µg/mL
- MIC, S. aureus, MHB+ [3, 6]: 0.12 μg of antimicrobial agent/mL of buffer

Compound: CC1(C)S[C@@H]2[C@H](NC(=O)[C@H](N)c3ccccc3)C(=O)N2[C@H]1C(=O)O [Ampicillin]
- MIC [2, 7]: 16 µg/mL
- MIC, S. aureus, MHB+ [3]: 8
- MIC [3]: 1 µg/mL

Compound: Cc1onc(-c2ccccc2)c1C(=O)N[C@@H]1C(=O)N2[C@@H]1SC(C)(C)[C@@H]2C(=O)O [Oxacillin]
- MIC [2, 7]: 256 µg/mL
- MIC, S. aureus, MHB+ [3]: 1
- MIC [3]: 0.0625 µg/mL

Compound: Teicoplanin
- MIC, E. coli, MHB+ [2]: 128 μg of antimicrobial agent/mL of buffer
- MIC, E. coli, MHB− [2, 4]: 128 μg of antimicrobial agent/mL of buffer
- Fold, E. coli [2, 5]: 1
- MIC, S. aureus, MHB− [3, 4]: 1 μg of antimicrobial agent/mL of buffer
- MIC, S. aureus, MHB+ [3, 6]: 2 μg of antimicrobial agent/mL of buffer
- Fold, S. aureus [3, 5]: −2

Compound: CO[C@H]1/C=C/O[C@@]2(C)Oc3c(C)c(O)c4c(O)c(c(/C=N/N5CCN(C)CC5)c(O)c4c3C2=O)NC(=O)/C(C)=C\C=C\[C@H](C)[C@H](O)[C@@H](C)[C@@H](O)[C@@H](C)[C@H](OC(C)=O)[C@@H]1C [Rifampicin]
- MIC [2, 7]: 32 µg/mL
- MIC, S. aureus, MHB+ [3]: 0.031
- MIC [3]: 0.0078 µg/mL

Compound: Oc1cc(Cl)ccc1Oc1ccc(Cl)cc1Cl [Triclosan]
- MIC, E. coli, MHB+ [2]: 0.125 μg of antimicrobial agent/mL of buffer
- MIC [2, 4]: 0.125 µg/mL
- MIC, S. aureus, MHB+ [3]: 0.062 μg of antimicrobial agent/mL of buffer
- MIC [3]: 0.062 µg/mL

Compound: NC[C@H]1O[C@H](O[C@H]2[C@H](O)[C@@H](O[C@H]3O[C@H](CO)[C@@H](O)[C@H](N)[C@H]3O)[C@H](N)C[C@@H]2N)[C@H](N)C[C@@H]1O [Tobramycin]
- MIC, E. coli, MHB+ [2]: 0.25 μg of antimicrobial agent/mL of buffer
- MIC [2, 4]: 0.25 µg/mL
- MIC, S. aureus, MHB+ [3]: 0.5 μg of antimicrobial agent/mL of buffer
- MIC [3]: 0.25 µg/mL

Compound: Nisin
- MIC, E. coli, MHB− [2, 4]: >128 μg of antimicrobial agent/mL of buffer
- MIC, E. coli, MHB+ [2, 6]: >128 μg of antimicrobial agent/mL of buffer
- Fold, E. coli [2, 5]: 1
- MIC, S. aureus, MHB− [3, 4]: >128 μg of antimicrobial agent/mL of buffer
- MIC, S. aureus, MHB+ [3, 6]: >128 μg of antimicrobial agent/mL of buffer
- Fold, S. aureus [3, 5]: 1

Compound: Cc1cc(NS(=O)(=O)c2ccc(N)cc2)no1 [sulfamethoxazole]
- effect of 25 mM sodium bicarbonate on antibacterial activity [2]: remained largely unchanged
- effect of 25 mM sodium bicarbonate on antibacterial activity ([3]; S. aureus): remained largely unchanged

Compound: Polyvinylpyrrolidone iodine complex
- MIC, E. coli, MHB [2, 8]: >128 μg of antimicrobial agent/mL of buffer
- MIC, E. coli, MHB+ [2, 9]: >128 μg of antimicrobial agent/mL of buffer
- Fold, E. coli [2, 10]: 1
- MIC, S. aureus, MHB [3, 8]: >128 μg of antimicrobial agent/mL of buffer
- MIC, S. aureus, MHB+ [3, 9]: >128 μg of antimicrobial agent/mL of buffer
- Fold, S. aureus [3, 10]: 1

Compound: [H]/N=C(\N/C(=N/[H])NCCCCCCNC(=N)NC(=N)Nc1ccc(Cl)cc1)Nc1ccc(Cl)cc1 [Chlorhexidine]
- MIC, E. coli, MHB [2]: 0.5 μg of antimicrobial agent/mL of buffer
- MIC, E. coli, MHB+ [2]: 0.125 μg of antimicrobial agent/mL of buffer
- MIC, S. aureus, MHB [3]: 0.5 μg of antimicrobial agent/mL of buffer
- MIC, S. aureus, MHB+ [3]: 0.0625 μg of antimicrobial agent/mL of buffer

Compound: C[C@@H]1CN(c2c(F)c(N)c3c(=O)c(C(=O)O)cn(C4CC4)c3c2F)C[C@H](C)N1 [Sparfloxacin]
- MIC, E. coli, MHB+ [2]: 32 μg of antimicrobial agent/mL of buffer
- MIC [2, 4]: 16 µg/mL
- MIC, S. aureus, MHB+ [3]: 0.25 μg of antimicrobial agent/mL of buffer
- MIC [3]: 0.125 µg/mL
